Assay results as given in US20130310306A1, “HUMAN LACTOFERRIN DERIVED PEPTIDES AND THEIR USE” (PharmaSurgics In Sweden AB, priority 2011, published 2013).

Legend:
[1] = test system: TNF-α production in LPS stimulated THP-1 cells; assay: Inhibition of TNF-α production in LPS stimulated THP-1 cells (ELISA); settings: for TNF-α at 40 μM peptide / TNF-α at 4 μM peptide / TNF-α at 10 μM peptide: mean relative secretion; for TNF-α at 40 μM peptide: stimulated level without peptide = 100%, basal = 0%
[2] = test system: S. aureus (CCUG 1800); assay: Minimal microbicidal concentration (MMC99) assay, S. aureus; type: cell-based; settings: 2 hours; for MMC99 μM in 50% SWF: 50% heat inactivated simulated wound fluid
Protocol: Antimicrobial Activity was Measured as Bactericidal Effect on S. Aureus Using Minimal Microbicidal Concentration, MMC99, Assay)
S. aureus (#1800; CCUG, Gothenburg, Sweden) cultured on blood-agar plates [Columbia agar (Oxoid, Basingstoke, UK) supplemented with 5% defibrinated horse blood (National Veterinary Institute (SVA), Uppsala, Sweden)] were transferred to brain heart infusion broth (3.7% BHI; Difco, BD Diagnostics, Franklin Lakes, N.J., USA) and incubated in a shaker at 250 rpm+37° C. over night. The culture was thereafter be diluted 1:10 in fresh BHI broth and incubated for additional two hours to reach log-phase growth. The bacteria were pelleted and suspended in 1% BHI medium (BHI broth diluted 100 times in ultra-pure water) to a concentration of 10^7 bacteria/ml as estimated by measuring optical density at 600 nm. Peptides were serially diluted by two-fold steps from 160 μM to 1.25 μM in 1% BHI medium. The peptides (100 μl) were thereafter incubated with bacteria (5 μl á 10^7 bact./ml) for 2 hours at +37° C. Drops (5 μl) of the suspension were placed on blood agar plates. The blood agar plates were incubated over night at +37° C. The MMC99 values, i.e. the lowest peptide concentration needed to achieve a 99% reduction of viable bacteria, were recorded (Table 3). The concentration of the bacterial suspension used in the assay was confirmed by viable counts on blood agar plates.
S. aureus (#1800; CCUG, Gothenburg, Sweden) cultured on blood-agar plates [Columbia agar (Oxoid, Basingstoke, UK) supplemented with 5% defibrinated horse blood (National Veterinary Institute (SVA), Uppsala, Sweden)] were transferred to brain heart infusion broth (3.7% BHI; Difco, BD Diagnostics, Franklin Lakes, N.J., USA) and incubated in a shaker at 250 rpm+37° C. over night. The culture was thereafter be diluted 1:10 in fresh BHI broth and incubated for additional two hours to reach log-phase growth. The bacteria were pelleted and suspended in 1% BHI medium (BHI broth diluted 100 times in ultra-pure water) to a final concentration of 10^7 bacteria/ml as estimated by measuring optical density at 600 nm. Peptides were serially diluted by two-fold steps from 400 μM to 0.78 μM in either 1% BHI medium or in 50% heat inactivated simulated wound fluid [SWF, containing 1 part 0.1% peptone (Oxoid, Basingstoke, UK) in saline and 1 part fetal bovine serum, diluted 2 times in ultra-pure water].
The peptides (100 μl) were thereafter incubated with bacteria (5 μl á 10^7 bact./ml) for 2 hours at +37° C. Drops (5 μl) of the suspension were placed on blood agar plates. The blood agar plates were incubated over night at +37° C. The MMC99 values, i.e. the lowest peptide concentration needed to achieve a 99% reduction of viable bacteria were recorded (Table 6). The concentration of the bacterial suspension used in the assay was confirmed by viable counts on blood agar plates.
The antimicrobial effects of the peptide 265 (SEQ ID NO: 27) was analysed by MMC99 (minimal microbicidal concentration) assay against S. aureus (CCUG 1800), MRSA (CCUG 41879), P. aeruginosa (ATCC 15442), E. coli (CCUG 31246), S. pyogenes (CCUG 4207), P. acnes (CCUG 1794T), S. epidermidis (ATCC12228), K. pneumoniae (ATCC 13883), A. baumannii (ATCC 19606), and C. albicans (ATCC 64549). The peptides were purchased from Biopeptide Company (San Diego, Calif., USA) and Bachem AG (Bubendorf, Switzerland) and results are presented in Table 8A and 8B respectively.
Peptide was serially diluted in two different assay medium, 1% BHI medium (brain-heart infusion medium) or 50% heat inactivated simulated wound fluid (SWF), and thereafter incubated with the microorganisms for 2 hours. Drops of the suspension were placed on blood agar plates. The MMC99 values, i.e. the lowest peptide concentration needed to achieve a 99% reduction of viable microorganisms, were recorded. As presented in Table 8, the peptide has the ability to kill microorganisms frequently appearing in infections.

[3] = screen 1, 99% reduction of viable bacteria

| Sequence | TNF-α at 40 μM peptide ([1]; screen 2, 40 μM peptide) [%] | MMC99 μM in 1% BHI medium ([2]; screen 2) [µM] | MMC99 μM in 50% SWF ([2]; screen 2) [µM] | TNF-α activities at 40 μM ([1]; 40 μM peptide, result in words) | TNF-α activity at higher concentrations ([1]; concentrations higher than 40 μM, result in words) | TNF-α at 4 μM peptide ([1]; screen 2) [%] | TNF-α at 10 μM peptide ([1]; screen 2) [%] | TNF-α at 40 μM peptide ([1]; screen 1, 40 μM peptide, 6 h) [%] | MMC99 μM in 1% BHI medium [2, 3] [µM] |
| --- | --- | --- | --- | --- | --- | --- | --- | --- | --- |
| FQWQRNMRKVRGSRRRRG [Peptide 224] | 113.4 | 12.5 | 400 |  |  |  |  |  |  |
| FQWQRNMRKVRGSRRRRG [Peptide 256] | 100.5 | 12.5 | 200 |  |  |  |  |  |  |
| FQWQRNMRKVRGSRRRRG [Peptide 282] | 114.8 | 12.5 | 200 |  |  |  |  |  |  |
| FQWQRNMRKVRGSRRRRG [template peptide, reference compound] |  |  |  | almost inactive | active |  |  |  |  |
| FRWKRRMRKVRGSRRRQG [Peptide 263] | 61.4 | 6.25 | 100 |  |  | 93.6 | 100.1 |  |  |
| FWWKKAMKKVKGTRRRRG [Peptide 273] | 52.7 | 6.25 | 12.5 |  |  | 86.2 | 78.6 |  |  |
| FWWKRAMRKVRGSRRRRG [Peptide 132] |  |  |  |  |  |  |  | 18 | 5 |
| FWWKRAMRKVRLSRRRRG [Peptide 270] | 23.1 | 6.25 | 12.5 |  |  | 96.2 | 71.5 |  |  |
| FWWKRAMRKVRNSRRRRG [Peptide 271] | 24.5 | 6.25 | 6.25 |  |  | 101.7 | 74.4 |  |  |
| GRRRRSFQWKRRMRKVR [Peptide 269] | 66.2 | 6.25 | 200 |  |  | 115.7 | 113.8 |  |  |
| GRRRRSGRVKRMRRKQWF [Peptide 268] | 74.4 | 6.25 | 200 |  |  | 114.5 | 129.7 |  |  |
| KQWKRMMRKVFSVRRWFL [Peptide 262] | 12.1 | 6.25 | 6.25 |  |  | 79.6 | 45.3 |  |  |
| KQWKRWMRKVFVSLRRVG [Peptide 260] | 5.9 | 6.25 | 25 |  |  | 99.3 | 74.0 |  |  |
| RQWKRRMRKVFHSYRRMG [Peptide 259] | 33.0 | 6.25 | 25 |  |  | 108.4 | 108.5 |  |  |
| RQWKRVMRKVFGSRWWRG [Peptide 261] | 24.5 | 12.5 | 12.5 |  |  | 86.0 | 56.2 |  |  |
| VYYKRTARKARGSRRRRG [Peptide 272] | 102.8 |  |  |  |  |  |  |  |  |
| WFQWKRAMRKVRGSRRRRG [Peptide 130] |  |  |  |  |  |  |  | 6 | 5 |
